Measurements reported in PubChem BioAssay AID1963430 (Molecular Pharmacology Branch, DTP, NCI, 2024).

Test system: 521955-158-R2-J5-PDC complex spheroid growth, % test/control
Test: Anticancer human tumor 521955-158-R2-J5-PDC patient-derived pancreatic carcinoma cell line growth inhibition [Asc]
Details: for IC50: curve of first compound; for viability, T/C: stronger effect = lower value
Outline: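 Stromal components (HUVEC and hMSC) are co-assembled with the cancer cells into multicellular spheroids. Drugs are then added singly or paired, at concentrations falling by half-log increments from a clinically achievable maximum, capped at 10 microM without known Cmax.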

[1] = second compound 0.01 µM, first compound 0.00316 µM
[2] = second compound 0.01 µM, first compound 0.01 µM
[3] = second compound 0.01 µM, first compound 0.0316 µM
[4] = second compound 0.01 µM, first compound 0.1 µM
[5] = second compound 0.01 µM, first compound 0.316 µM
[6] = second compound 0.01 µM, first compound 1 µM
[7] = second compound 0.0316 µM, first compound 0.00316 µM
[8] = second compound 0.0316 µM, first compound 0.01 µM
[9] = second compound 0.0316 µM, first compound 0.0316 µM
[10] = second compound 0.0316 µM, first compound 0.1 µM
[11] = second compound 0.0316 µM, first compound 0.316 µM
[12] = second compound 0.0316 µM, first compound 1 µM
[13] = second compound 0.1 µM, first compound 0.00316 µM
[14] = second compound 0.1 µM, first compound 0.01 µM
[15] = second compound 0.1 µM, first compound 0.0316 µM
[16] = second compound 0.1 µM, first compound 0.1 µM
[17] = second compound 0.1 µM, first compound 0.316 µM
[18] = second compound 0.1 µM, first compound 1 µM
[19] = second compound 0.316 µM, first compound 0.00316 µM
[20] = second compound 0.316 µM, first compound 0.01 µM
[21] = second compound 0.316 µM, first compound 0.0316 µM
[22] = second compound 0.316 µM, first compound 0.1 µM
[23] = second compound 0.316 µM, first compound 0.316 µM
[24] = second compound 0.316 µM, first compound 1 µM
[25] = second compound 1 µM, first compound 0.00316 µM
[26] = second compound 1 µM, first compound 0.01 µM
[27] = second compound 1 µM, first compound 0.0316 µM
[28] = second compound 1 µM, first compound 0.1 µM
[29] = second compound 1 µM, first compound 0.316 µM
[30] = second compound 1 µM, first compound 1 µM
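Further: spheroids exposed to agents for 7 days before readout.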
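Wherever viability, T/C is given: 100% = DMSO vehicle control viability.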

`CCN1CCN(Cc2ccc(Nc3ncc(F)c(-c4cc(F)c5nc(C)n(C(C)C)c5c4)n3)nc2)CC1` + CNC(C)C(=O)NC1CN(S(=O)(=O)c2cccc(S(=O)(=O)N3CCC4CCC(C(=O)NC(c5ccccc5)c5ccccc5)N4C(=O)C(NC(=O)C(C)NC)C3)c2)CCC2CCC(C(=O)NC(c3ccccc3)c3ccccc3)N2C1=O gave an IC50 (second compound 0.01 µM) greater than 1000 nM, an IC50 (second compound 0.0316 µM) greater than 1000 nM and an IC50 (second compound 0.1 µM) greater than 1000 nM. The IC50 (second compound 0.316 µM) was greater than 1000 nM, the IC50 (second compound 1 µM) was greater than 1000 nM and the viability, T/C [1] was 89.3%. For the same molecule, the viability, T/C [2] was 85.6%, the viability, T/C [3] was 71.2% and the viability, T/C [4] was 61.6%. For the same molecule, the viability, T/C [5] was 73.2%, the viability, T/C [6] was 94.8% and the viability, T/C [7] was 87.8%. For the same molecule, the viability, T/C [8] was 106%, the viability, T/C [9] was 82.5% and the viability, T/C [10] was 84.1%. It also gave a viability, T/C [11] of 83.6%, a viability, T/C [12] of 102% and a viability, T/C [13] of 97.6%. For the same molecule, the viability, T/C [14] was 91.7%, the viability, T/C [15] was 76.6% and the viability, T/C [16] was 76.9%. It also gave a viability, T/C [17] of 86.7%, a viability, T/C [18] of 96.8% and a viability, T/C [19] of 76.3%. For the same molecule, the viability, T/C [20] was 76.8%, the viability, T/C [21] was 83.5% and the viability, T/C [22] was 66.6%. It also gave a viability, T/C [23] of 69.7%, a viability, T/C [24] of 105% and a viability, T/C [25] of 95.5%. It also gave a viability, T/C [26] of 85.1%, a viability, T/C [27] of 64.8% and a viability, T/C [28] of 57.7%. It also gave a viability, T/C [29] of 69.9% and a viability, T/C [30] of 103%.
With `NC(=O)C(=Cn1cnc(-c2cc(C(F)(F)F)cc(C(F)(F)F)c2)n1)c1cncnc1` + CNC(C)C(=O)NC1CN(S(=O)(=O)c2cccc(S(=O)(=O)N3CCC4CCC(C(=O)NC(c5ccccc5)c5ccccc5)N4C(=O)C(NC(=O)C(C)NC)C3)c2)CCC2CCC(C(=O)NC(c3ccccc3)c3ccccc3)N2C1=O the IC50 (second compound 0.01 µM) was 5.34 nM, the IC50 (second compound 0.0316 µM) was 8.62 nM and the IC50 (second compound 0.1 µM) was 44.6 nM. For the same molecule, the IC50 (second compound 0.316 µM) was 23.4 nM, the IC50 (second compound 1 µM) was 47.4 nM and the viability, T/C (second compound 0.01 µM, first compound 0.000949 µM) was 96.9%. It also gave a viability, T/C (second compound 0.01 µM, first compound 0.003 µM) of 60.7%, a viability, T/C (second compound 0.01 µM, first compound 0.00949 µM) of 39% and a viability, T/C (second compound 0.01 µM, first compound 0.03 µM) of 43%. It also gave a viability, T/C (second compound 0.01 µM, first compound 0.0949 µM) of 37.4%, a viability, T/C (second compound 0.01 µM, first compound 0.3 µM) of 34.8% and a viability, T/C (second compound 0.0316 µM, first compound 0.000949 µM) of 84.4%. The viability, T/C (second compound 0.0316 µM, first compound 0.003 µM) was 91.9%, the viability, T/C (second compound 0.0316 µM, first compound 0.00949 µM) was 46.5% and the viability, T/C (second compound 0.0316 µM, first compound 0.03 µM) was 36.5%. For the same molecule, the viability, T/C (second compound 0.0316 µM, first compound 0.0949 µM) was 34.8%, the viability, T/C (second compound 0.0316 µM, first compound 0.3 µM) was 27.4% and the viability, T/C (second compound 0.1 µM, first compound 0.000949 µM) was 97.8%. The viability, T/C (second compound 0.1 µM, first compound 0.003 µM) was 77.9%, the viability, T/C (second compound 0.1 µM, first compound 0.00949 µM) was 72.9% and the viability, T/C (second compound 0.1 µM, first compound 0.03 µM) was 52.6%. For the same molecule, the viability, T/C (second compound 0.1 µM, first compound 0.0949 µM) was 42.6%, the viability, T/C (second compound 0.1 µM, first compound 0.3 µM) was 27.1% and the viability, T/C (second compound 0.316 µM, first compound 0.000949 µM) was 86.2%. The viability, T/C (second compound 0.316 µM, first compound 0.003 µM) was 76%, the viability, T/C (second compound 0.316 µM, first compound 0.00949 µM) was 39.8% and the viability, T/C (second compound 0.316 µM, first compound 0.03 µM) was 61.5%. For the same molecule, the viability, T/C (second compound 0.316 µM, first compound 0.0949 µM) was 40.7%, the viability, T/C (second compound 0.316 µM, first compound 0.3 µM) was 25.9% and the viability, T/C (second compound 1 µM, first compound 0.000949 µM) was 108%. For the same molecule, the viability, T/C (second compound 1 µM, first compound 0.003 µM) was 89.7%, the viability, T/C (second compound 1 µM, first compound 0.00949 µM) was 77.2% and the viability, T/C (second compound 1 µM, first compound 0.03 µM) was 58.6%. For the same molecule, the viability, T/C (second compound 1 µM, first compound 0.0949 µM) was 36.1% and the viability, T/C (second compound 1 µM, first compound 0.3 µM) was 32.3%.
For `O=C(c1ccc(F)c(F)c1Nc1ccc(I)cc1F)N1CC(O)([C@@H]2CCCCN2)C1` + CNC(C)C(=O)NC1CN(S(=O)(=O)c2cccc(S(=O)(=O)N3CCC4CCC(C(=O)NC(c5ccccc5)c5ccccc5)N4C(=O)C(NC(=O)C(C)NC)C3)c2)CCC2CCC(C(=O)NC(c3ccccc3)c3ccccc3)N2C1=O, the IC50 (second compound 0.01 µM) was 15.7 nM, the IC50 (second compound 0.0316 µM) was 18.4 nM and the IC50 (second compound 0.1 µM) was 14.5 nM. For the same molecule, the IC50 (second compound 0.316 µM) was 26.6 nM, the IC50 (second compound 1 µM) was 15.8 nM and the viability, T/C [1] was 61.2%. For the same molecule, the viability, T/C [2] was 57.2%, the viability, T/C [3] was 38.5% and the viability, T/C [4] was 35.7%. It also gave a viability, T/C [5] of 17.7%, a viability, T/C [6] of 20.2% and a viability, T/C [7] of 76.8%. It also gave a viability, T/C [8] of 56.4%, a viability, T/C [9] of 46.5% and a viability, T/C [10] of 26.9%. It also gave a viability, T/C [11] of 25.5%, a viability, T/C [12] of 18.8% and a viability, T/C [13] of 66.4%. The viability, T/C [14] was 44.7%, the viability, T/C [15] was 53.5% and the viability, T/C [16] was 29.4%. For the same molecule, the viability, T/C [17] was 19.7%, the viability, T/C [18] was 20.8% and the viability, T/C [19] was 61.6%. For the same molecule, the viability, T/C [20] was 60.3%, the viability, T/C [21] was 48% and the viability, T/C [22] was 28%. The viability, T/C [23] was 18.9%, the viability, T/C [24] was 18.3% and the viability, T/C [25] was 67.1%. The viability, T/C [26] was 53.4%, the viability, T/C [27] was 43.5% and the viability, T/C [28] was 28.2%. The viability, T/C [29] was 17.4% and the viability, T/C [30] was 17.3%.
